Assay results taken from patent publication US20240390529A1, “DUAL-MODE PROBE FOR DETECTING HYDROGEN SULFIDE AND USE THEREOF” (KYUNGPOOK NATIONAL UNIVERSITY INDUSTRY-ACADEMIC COOPERATION …, priority 2022, published 2024).

Assays:
H2S in HeLa cells = assay: Fluorescence imaging of exogenous and endogenous H2S in live HeLa cells; format: cell-based, human
Text: Next, we investigated the usefulness of Cu-ATSM-FITC(5) for monitoring H2S levels in living cells (FIG. 14).

[1] = tested on: H2S concentration in brain tissues; assay: Quantification of H2S in brain by methylene blue method; format: in vivo, mice
Protocol: The methylene blue method was used to directly measure H2S concentration in brain tissues. Briefly, PET imaging was performed, brains were harvested, weighed, and homogenized in liquid N2. An ice-cold PBS solution in a volume equivalent to the weight of the homogenate (w/v, approximately 260 to 300 mg) was added, followed by vortex for 3 min and centrifugation (14,000 rpm, 5 min, 4° C.). Then, 100 μL of the supernatant was incubated together with 100 μL of 1% zinc acetate dihydrate at 37° C. for 10 minutes to immobilize H2S. 100 μL of 0.1 M sodium tetraborate buffer (pH 9) and 200 μL of 20 mM N, N-dimethyl-p-phenylenediamine sulfate were added to 7.2 M HCl, and 200 μL of 30 mM iron (III) chloride was added to 1.2 M HCl, and the mixture was incubated at 37° C. for 15 min to form methylene blue dyes. The mixture was centrifuged again (14,000 rpm, 5 minutes, 4° C.). 100 μL of supernatant was transferred in triplicate to 96-well plates, and absorbance was recorded spectrophotometrically at 670 nm. The H2S concentration was calculated by using a standard curve obtained by plotting absorbance (A670) versus NaHS concentration (0 to 30 μM). For quantification of H2S in the left and right hemispheres of the brains, PET imaging was performed, and only the cerebral hemispheres were harvested and processed separately. […]

[2] = Optical properties (UV-Vis absorbance, fluorescence emission); format: physicochemical
Protocol: The optical properties of the free ligand ATSM-FITC (4) were evaluated. […] When H2S sequestered Cu(II) ions from the copper complex (5) and precipitated CuS, the ATSM-FITC ligand was released and fluorescence was emitted (FIG. 7).

[3] = tested on: human embryonic kidney cells (HEK293); assay: MTT cytotoxicity analysis, HEK293; format: cell-based
Protocol: (§1) The cytotoxicity of Cu-ATSM-FITC(5) was evaluated through 3-(4,5-dimethyl-2-thiazolyl)-2,5-diphenyltetrazolium bromide (MTT; sigma-aldrich) analysis. Human cervical cancer cells (HeLa), human hepatoma cells (HepG2), and human embryonic kidney cells (HEK293) were prepared in 96-well plates at a density of 10,000 cells per well. As compared to the control group treated with PBS alone, they were treated with Cu-ATSM-FITC (5) at increasing concentrations of 1, 10, and 25 μM. Afterwards, they were incubated for 1, 4, and 24 hours (37° C., 5% CO2), respectively. For each treatment time, each well was added with 10 μL of MTT (5 mg/mL in PBS) solution and incubated for 3 hours. The supernatant was carefully aspirated, and the purple insoluble formazan crystals in the wells were dissolved using DMSO for 30 minutes. Absorbance was measured at 550 nm using a spectrophotometer (SPECTROstar Nano, BMG Labtech, Ortenberg, Germany). CuS was also performed four times in a similar manner by using HeLa, HEK293, HepG2, and human brain glioblastoma (U87MG) cells.

[4] = Measurement of quantum yield versus fluorescein standard; format: physicochemical; settings: compared to the fluorescein standard value
Protocol: The background levels of methanol used in the experiment were measured by using a SpectraMaxi-3 spectraphotometer, and Cu-ATSM-FITC(5) was measured at concentrations of 0.02, 0.04, 0.06, 0.08, and 0.1 μM. A fluorescein standard line graph was obtained according to the concentration and intensity of Cu-ATSM-FITC(5). The quantum yield was calculated according to the following equation: Φ=ΦST (Grad x/Grad ST) (η×2/ηST 2). Here, the subscripts ST and X represent the measured values of the standard and test solutions, respectively. In addition, Φ represents the quantum yield and η represents the refractive index of the solution.

[5] = tested on: Human cervical cancer cells (HeLa); assay: MTT cytotoxicity analysis, HeLa; format: cell-based
Protocol: as §1

[6] = Selectivity toward competing biological species with and without H2S
Text: The selectivity of Cu-ATSM-FITC(5) was investigated against a variety of potentially competing biological species in the presence and absence of H2S (FIG. 6D).

[7] = Fluorescence response of probe to NaHS (sensitivity, reaction rate, detection limit)
Protocol: To confirm the sensitivity, Cu-ATSM-FITC(5) was incubated with a wide range of NaHS concentrations (0-100 μM) at 37° C. and the fluorescence intensity was measured (FIG. 6B). […] When reacted with 50 μM NaHS solution, the fluorescence intensity of Cu-ATSM-FITC(5) reached a plateau within 30 seconds (FIG. 6C). In contrast, the reactivity of Cu-ATSM-FITC(5) toward L-cysteine (1 mM) and glutathione (GSH) (10 mM) was minimal, as compared to H2S, even though their concentrations were at least 20 times higher than H2S. The detection limit of Cu-ATSM-FITC(5) was calculated to be 0.20 μM using the regression equation (FIG. 8). The quantum yield was confirmed to be 0.33 according to the equation, as compared to the fluorescein standard value (FIG. 9).

[8] = tested on: human hepatoma cells (HepG2); assay: MTT cytotoxicity analysis, HepG2; format: cell-based
Protocol: as §1

mouse brain tissues = settings: up to 7 days after injection of high-dose 500 μg; CuS precipitated
Protocol: Animals were anesthetized by using isoflurane, and injected with 100 μg of Cu-ATSM-FITC(5) in 100 μL of 10% DMSO/PBS, and 500 μg of Cu-ATSM-FITC(5) in 100 μL of 40% DMSO/PBS, respectively, through tail vein injection. The animals were perfused transcardially with saline 1, 3, and 7 days after the injection. The brains were dissected, fixed in 4% paraformaldehyde, and embedded in paraffin to make blocks. Serial coronal sections in paraffin with the thickness of 7 μm were obtained. The sections were stained with H&E by using a staining kit (BBC ClearView, BBC Eosin Y Alcoholic). The stained brain tissues were photographed under a Carl Ziess microscope at 400× magnification.

[9] = Fluorescence stability and reactivity at various pH; format: physicochemical; settings: pH 5 to 10
[10] = tested on: human brain glioblastoma (U87MG) cells; assay: MTT cytotoxicity analysis, U87MG; format: cell-based
Protocol: as §1

[11] = Biodistribution in normal BALB/c mice (γ-counter); format: in vivo; settings: 4 hours after administration
Protocol: BALB/c mice (male, 9 weeks old) were used to investigate the systemic distribution and clearance rate of ^64Cu-ATSM-FITC (6). ^64Cu-ATSM-FITC (6) with a radioactivity of 0.56 to 0.74 MBq in a saline solution (5% DMSO, 200 μL) was injected into mice through the tail vein under anesthesia. […] Blood was drawn, and organs comprising heart, lung, muscle, fat, bone, spleen, kidney, liver, intestine, and brain were harvested, weighed, and analyzed by using a γ-counter (Wallac Wizard 1480, PerkinElmer, France). Radioactivity was calculated as percentage of injected dose per gram (% ID/g).
The distribution of ^64Cu-ATSM-aniline in the body was confirmed by using the same method as described in Experimental Methods 5 and 7 above.

C#CCC(N)C(=O)O (racemic) [DL-propargylglycine, reference compound]
green fluorescence due to endogenous H2S after CSE blockade (H2S in HeLa cells; 450 μM, HeLa cells probed with Cu-ATSM-FITC(5)): completely reduced

Cl.NOCC(=O)O.NOCC(=O)O [AOAA]
reduction of H2S concentration in the brain compared to controls ([1]; 10 mg/kg intraperitoneal, mice): 32%
H2S concentration in the brain ([1]; AOAA-treated mice): 2.1±0.5 μg/g brain

CNC(=S)N/N=C(C)/C(C)=N/NC(=S)Nc1ccc(-c2c3ccc(=O)cc-3oc3cc(O)ccc23)c(C(=O)O)c1 [ATSM-FITC (4), 2-(6-hydroxy-3-oxo-3H-xanthen-9-yl)-5-((E)-2-((E)-3-(2-(methylcarbamothioyl)hydrazono)butan-2-ylidene)hydrazinecarbothioamido)benzoic Acid]
absorbance band ([2]; UV-Vis spectroscopy): 494 nm
maximum fluorescence emission ([2]; excitation at 480 nm): 524 nm

CNC([S-])=NN=C(C)C(C)=NN=C([S-])Nc1ccc(-c2c3ccc(=O)cc-3oc3cc(O)ccc23)c(C(=O)O)c1.[Cu+2] [Cu-ATSM-FITC(5), Copper(II) Complex of 2-(6-hydroxy-3-oxo-3H-xanthen-9-yl)-5-((E)-2-((E)-3-(2-(methylcarbamothioyl)hydrazono)butan-2-ylidene)hydrazinecarbothioamido)benzoic Acid]
cytotoxicity [3]: No cytotoxicity was observed
fluorescence signal of the complex ([2]; without H2S): did not show a detectable fluorescence signal
quantum yield [4]: 0.33
survival rate of HeLa cells ([5]; 1, 10, and 25 μM, 24 hours of incubation): exceeded 85%
fluorescence intensity with competing species plus NaHS ([6]; NaHS 50 μM added with other biologically abundant species): full fluorescence intensity was observed without interference
reactivity (fluorescence signals) with other species ([6]; biothiols, inorganic sulfur species, reducing agents, nucleophiles, ROS/RNS, absence of H2S): did not show reactivity
detection of endogenous H2S induced by L-cysteine (H2S in HeLa cells; L-cysteine 100 μM): successfully detected the increase in endogenous H2S concentration
green fluorescence intensity in HeLa cells on addition of NaHS (H2S in HeLa cells; NaHS 50 and 100 μM): linear rise in green fluorescence intensity
fluorescence signal in HeLa cells (H2S in HeLa cells; probe 25 μM, no added H2S): faint fluorescence signal
time for fluorescence intensity to reach a plateau ([7]; 50 μM NaHS solution): ≤ 30 s
fluorescence enhancement at 524 nm ([7]; 100 μM NaHS compared to concentration 0, 37° C.): up to 3500 fold
reactivity toward L-cysteine and glutathione (GSH) compared to H2S ([7]; L-cysteine 1 mM, GSH 10 mM): minimal
detection limit ([7]; calculated using the regression equation, H2S): 0.20 µM
cytotoxicity [8]: No cytotoxicity was observed
toxicity in mouse brain tissues (H&E staining) (mouse brain tissues): low toxicity
stability and reactivity over physiological pH range [9]: high stability and reactivity

[S]=[Cu] [CuS, copper sulfide]
cytotoxicity [3]: no cytotoxicity was found
cytotoxicity ([5]; HeLa): no cytotoxicity was found
cytotoxicity [10]: no cytotoxicity was found
cytotoxicity [8]: no cytotoxicity was found

CNC([S-])=NN=C(C)C(C)=NN=C([S-])Nc1ccc(N(C)C)cc1.[64Cu+2] [^64Cu-ATSM-aniline, reference compound]
distribution in the brain [11]: very low
organs of widest distribution [11]: lungs and liver
